The results in this text go back to patent US20120157401A1, “METHODS FOR TREATING NEUROFIBROMATOSIS” (PTC Therapeutics, Inc., priority 2009, published 2012).

The structures appear in SMILES notation.

The first assay concerns hypoxia-inducible endogenous VEGF expression. Nature of the assay: Hypoxia-inducible endogenous VEGF expression ELISA in HeLa cells, dose-response EC50 (Table 3). Format: cell-based, human. The settings on record: HeLa cells, hypoxic conditions (1% O2), 24-48 hours, VEGF in conditioned media; read-out: ELISA EC50. The method, boiled down: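 HeLa cells kept 24-48 h under hypoxia (1% O2, 5% CO2, nitrogen balance) with or without compound, e.g. seven concentrations; secreted VEGF in conditioned medium quantified by ELISA against a standard curve. Parallel Cell Titer Glo viability under identical conditions excludes cytotoxicity.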
One may read the EC50 as the midpoint of the concentration-response curve. Regarding `CC(C)c1ccc(C2c3[nH]c4ccc(Br)cc4c3CCN2C(=O)Oc2ccc(Cl)cc2)cc1` (stereo not drawn) [Compound 572], the EC50 is less than 0.008 µM.
The same measure, in the same setting: under `O=C(Oc1ccc(F)cc1)N1CCc2c([nH]c3ccc(Br)cc23)C1c1ccc(C(F)(F)F)cc1` (stereo not drawn) [Compound 426] stands less than 0.008 µM.

Still in this assay, the particulars now being: Homo sapiens, HeLa, read-out: ELISA EC50 μM.
Take `CN1CCN(CCCOc2ccc(C3c4[nH]c5ccc(Cl)cc5c4CCN3C(=O)Oc3ccc(F)cc3)cc2)CC1` (stereo not drawn) [Compound 993]: the EC50 is less than 0.008 µM.
The same measure, in the same setting: under `COCCCNCCCCCCOc1ccc(C2c3[nH]c4ccc(Cl)cc4c3CCN2C(=O)Oc2ccc(Cl)cc2)cc1` (stereo not drawn) [Compound 785] stands less than 0.008 µM.
On the same count and under the same terms, the result for `O=C(Oc1ccc(Cl)cc1)N1CCc2c([nH]c3ccc(Cl)cc23)C1c1ccc(OCCCN2CCC(O)CC2)cc1` (stereo not drawn) [Compound 1537] reads less than 0.008 µM.
As to `O=C(OCCN1CCOCC1)N1CCC(Oc2ccc([C@H]3c4[nH]c5ccc(Cl)cc5c4CCN3C(=O)Oc3ccc(Cl)cc3)cc2)CC1` [Compound 1693], the EC50 is less than 0.008 µM.
Turning to `COc1cc(C2c3[nH]c4ccc(Cl)cc4c3CCN2C(=O)Oc2ccc(Cl)cc2)ccc1OCCCCN1CCOCC1` (stereo not drawn) [Compound 1094], the EC50 was in the range of 0.008 to 0.04 µM.
For the compound `O=C(Oc1ccc(Cl)cc1)N1CCc2c([nH]c3ccc(Cl)cc23)C1c1ccc(OCCCCN2CCCC2)cc1` (stereo not drawn) [Compound 698], the EC50 lay within 0.008 to 0.04 µM.
Take `O=C(Oc1ccc(Cl)cc1)N1CCc2c([nH]c3ccc(Cl)cc23)[C@@H]1c1ccc(OC2CCN(CC[C@H](O)CO)CC2)cc1` [Compound 1703]: the EC50 lay within 0.2 to 1 µM.

The assay is the same for the next values; noted with them: Homo sapiens; HeLa cells, hypoxic conditions (1% O2), 24-48 hours, VEGF in conditioned media; read-out: ELISA EC50.
For `O=C(Oc1ccccc1Cl)N1CCc2c([nH]c3ccc(Cl)cc23)C1c1ccc(OCC2OCCO2)cc1` (stereo not drawn) [Compound 1052], the EC50 was 0.008 to 0.04 µM.
`O=C(Oc1ccc(F)cc1)N1CCc2c([nH]c3ccc(Cl)cc23)C1c1ccc(OCCn2ccnn2)cc1` (stereo not drawn) [Compound 833]: the EC50 was in the range of 0.04 to 0.2 µM.
As for `COc1ccc(C2c3[nH]c4ccc(Cl)cc4c3CCN2C(=O)Oc2ccccc2Cl)cc1` (stereo not drawn) [Compound 587], the EC50 fell in the range of 0.04 to 0.2 µM.
Still for that read-out and setting: the result for `O=C(Oc1ccc(F)cc1)N1CCc2c([nH]c3ccc(Cl)cc23)C1c1ccc(OCCCCl)cc1` (stereo not drawn) [Compound 712] reads less than 0.008 µM.
On to `O=C(Oc1ccc(Cl)cc1)N1CCc2c([nH]c3ccc(Cl)cc23)C1c1ccc(OCCCCl)cc1` (stereo not drawn) [Compound 921], for which the EC50 was less than 0.008 µM.
As for `COc1cc(C2c3[nH]c4ccc(Cl)cc4c3CCN2C(=O)Oc2ccc(C)cc2)ccc1OCCCn1cncn1` (stereo not drawn) [Compound 1152], the EC50 is 0.008 to 0.04 µM.

Still in this assay, the particulars now being: Homo sapiens; HeLa cells, hypoxic conditions (1% O2), VEGF ELISA of conditioned media; read-out: ELISA EC50.
In the case of `CCOC(=O)NC[C@H](O)COc1ccc([C@H]2c3[nH]c4ccc(Cl)cc4c3CCN2C(=O)Oc2ccc(F)cc2)cc1` [Compound 1663], the EC50 was less than 0.008 µM.
For `COc1ccc(OC(=O)N2CCc3c([nH]c4ccc(Cl)cc34)C2c2ccc(OCC#N)cc2)cc1` (stereo not drawn) [Compound 1549], the EC50 fell in the range of 0.008 to 0.04 µM.
Take `NC(=O)c1cn(CCOc2ccc(C3c4[nH]c5ccc(Cl)cc5c4CCN3C(=O)Oc3ccc(Cl)cc3)cc2)nc1N` (stereo not drawn) [Compound 1422]: the EC50 was 0.008 to 0.04 µM.
The same measure, in the same setting: the result for `CC(=O)Oc1ccc([C@@H]2c3[nH]c4ccc(Cl)cc4c3CCN2C(=O)Oc2ccc(Cl)cc2)cc1` [Compound 1539] reads 0.04 to 0.2 µM; that for `CN1C(=O)CN(CCCOc2ccc(C3c4[nH]c5ccc(Cl)cc5c4CCN3C(=O)Oc3ccc(Cl)cc3)cc2)C1=O` (stereo not drawn) [Compound 1673], less than 0.008 µM.
With `O=C(Oc1ccc(Cl)cc1)N1CCc2c([nH]c3ccc(Cl)cc23)[C@@H]1c1ccc(Oc2ncccn2)cc1` [Compound 1570], the EC50 is less than 0.008 µM.
Regarding `O=C(Oc1ccc(Cl)cc1)N1CCc2c([nH]c3ccc(Cl)cc23)[C@@H]1c1ccc(Oc2ccc3ccccc3n2)cc1` [Compound 1572], the concentration for a half-maximal effect (EC50) is less than 0.008 µM.
Regarding `CCCOC(=O)NCC(O)CCOc1ccc([C@H]2c3[nH]c4ccc(Cl)cc4c3CCN2C(=O)Oc2ccc(Cl)cc2)cc1` (stereo partly drawn) [Compound 1666], the EC50 is less than 0.008 µM.
As to `C[Si](C)(C)CCS(=O)(=O)N1CCC(Oc2ccc([C@H]3c4[nH]c5ccc(Cl)cc5c4CCN3C(=O)Oc3ccc(Cl)cc3)cc2)CC1` [Compound 1652], the EC50 is less than 0.008 µM.
